Experiment [1] deals with KRAS G12V dependent lung adenocarcinoma cell line, NCI-H441. The experiment can be described thus: Cellular pERK (Thr202/Tyr204) FRET/HTRF assay. Type of experiment: cell-based. Particulars: Homo sapiens. The gist of the method: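 Read-out is a wash-free FRET sandwich immunoassay for endogenous ERK1/2 phosphorylated on Thr202/Tyr204. Signal was measured in NCI-H441 lung adenocarcinoma cells after 1 hr compound exposure at 37 °C. IC50 values come from fitted concentration-response curves.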
In general terms: In TR-FRET formats the signal depends on donor and acceptor labels being close together.

Experiment [2] concerns the target KRAS (G12D)/CRAF (Homo sapiens (Human), UniProt P01116, G12D). Nature of the experiment: TR-FRET biochemical KRAS:CRAF protein:protein interaction assay, KRAS (G12D). Type of experiment: binding. Conditions: GMPPNP loaded Biotin-KRAS (G12D), FLAG CRAF RBD; read-out: TR-Fret_PPI KRAS (G12D)/CRAF IC50. Here is the method: (§1) The effect of test compounds on KRAS and CRAF protein: protein interaction (PPI) was measured by time resolved fluorescence resonance energy transfer (TR-FRET) Ras binding domain (RBD) assay, which uses a signal generated through fluorescent resonance energy transfer between a donor and an acceptor molecule when in close proximity to each other. Interference from buffer, media, etc. is reduced by dual-wavelength detection; the energy pulse from the excitation source is followed by a time delay, which allows interfering short-lived fluorescence to decay (Degorce et al. 2009).
(§2) The KRAS: CRAF PPI assay can be utilized to identify KRAS ‘ON’ state inhibitors, as the KRAS protein is loaded with GMPPNP (a non-hydrolyzable GTP analog), which represents the active KRAS ‘ON’ state. FLAG-tagged CRAF RBD binding to the GMPPNP loaded biotin-tagged KRAS will result in a fluorescence energy transfer from the donor (Tb-anti-FLAG, emission 620 nm) to the acceptor (SA-XL665, emission 665 nm). Disruption of KRAS and CRAF binding will reduce the TR-FRET signal.
(§3) Test compound was dissolved in DMSO to create a 1 mM stock solution. A 45 μL volume of stock solution was transferred to a 384well polypropylene plate. A 3fold, 10point dilution was performed by transferring 15 μL of test compound solution into 30 μL of DMSO.
(§4) Assay buffer A was prepared with […] Hepes, pH7.3, 0.002% Tween 20, 0.1% BSA, […] NaCl, 5 mM MgCl2, and 10 uM GMP-PNP. 4× KRAS Solution was prepared with 80 nM of Biotin-KRAS (G12D/V), GMPPNP loaded or Biotin-KRAS (WT), GMPPNP loaded protein in assay buffer A. 4× Raf RBD Solution was prepared with 400 nM FLAG CRAF RBD in assay buffer A. 2× Detection Mixture was prepared with 2 nM Tb-anti-FLAG antibody and 10 nM and 10 nM SA-XL665 in assay buffer A.
(§5) A volume of 100 nL of 100× test compound working solution or DMSO vehicle control solution was dispensed to each well (duplicate for each concentration) of a 384-well ProxiPlate Plus assay plate. A volume of 2.5 μL of 4× KRAS Solution was added to each well of the assay plate for a final concentration of 20 nM Biotin-KRAS (G12D/V),GMPPNP loaded or 20 nM Biotin-KRAS (WT), GMPPNP. For low control, add 2.5 μL of assay buffer (no KRAS protein). Pre-incubate assay plate for 30 minutes at room temperature. Following pre-incubation of test compound or DMSO with Biotin-KRAS (G12D/V),GMPPNP loaded or Biotin-KRAS (WT),GMPPNP, a volume of 2.5 μL of 4× FLAG cRAF RBD Solution was added to each well of the assay plate for a final concentration of 100 nM FLAG CRAF RBD. The assay plate was subjected to centrifuge at 1000 rpm for 1 minute and pre-incubate assay plate for 150 minutes at room temperature. Following the pre-incubation with FLAG cRAF RBD, a volume of 5 μl of 2× Detection Mixture was added to each well of the assay plate for a final concentration of 1 nM Tb-anti-FLAG and 5 nM SA-XL665. The assay plate was centrifuged at 1000 rpm for 1 minute and incubated for 90 minutes at room temperature. TR-FRET signal was measured on a BioTek Synergy Neo2 microplate reader (excitation at 340 nm, emission at 665 nn and 620 nm).
(§6) TR-FRET ratios were calculated by dividing the acceptor emission value (665 nm) by the donor emission value (620 nm) for each sample.
(§7) Percent inhibition was calculated by multiplying the normalized TR-FRET ratio by 100, where TR-FRET ratio^HIGH was the TR-FRET ratio obtained from wells with 1% DMSO and complete reaction mixture, TR-FRET ratio^LOW was the ratio obtained from wells with 1% DMSO and reaction mixture without KRAS protein and TR-FRET ratio^SAMPLE was the TR-FRET ratio from wells with test compound and complete reaction mixture. The IC50 values were calculated from normalized TR-FRET ratios with the Levenberg-Marquardt 4 parameter fitting procedure.
(§8) This assay quantifies the interaction of a KRAS mutant protein (e.g., G12V) with the CRAF Ras-binding domain (RBD). […]

The target in experiment [3] is KRAS (G12V)/CRAF (Homo sapiens (Human), UniProt P01116, G12V). The experiment can be described thus: TR-FRET biochemical KRAS:CRAF protein:protein interaction assay, KRAS (G12V). Particulars: GMPPNP loaded Biotin-KRAS (G12V), FLAG CRAF RBD; read-out: TR-Fret_PPI KRAS (G12V)/CRAF IC50. It is filed as binding. Here is the method:
as §1, §2, §3, §4, §5, §6, §7, §8

Where [4] appears, read: NCI-H441, pERK HTRF, NCI-H441 cells (KRAS G12V).
Setting [5] is: NCI-H441, cellular pERK (Thr202/Tyr204) HTRF, NCI-H441 cells.

pIC50: −log10 of the molar value.

KRAS (G12V)/CRAF, sequence (P01116-2 other isoform, or with tags, fused parts or gaps G12V): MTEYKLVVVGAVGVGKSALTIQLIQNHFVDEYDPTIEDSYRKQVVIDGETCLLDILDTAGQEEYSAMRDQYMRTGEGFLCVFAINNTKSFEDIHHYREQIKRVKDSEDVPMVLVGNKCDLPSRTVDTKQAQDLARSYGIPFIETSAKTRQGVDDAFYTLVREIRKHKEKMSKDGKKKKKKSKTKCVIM
KRAS (G12D)/CRAF, sequence (P01116-2 other isoform, or with tags, fused parts or gaps G12D): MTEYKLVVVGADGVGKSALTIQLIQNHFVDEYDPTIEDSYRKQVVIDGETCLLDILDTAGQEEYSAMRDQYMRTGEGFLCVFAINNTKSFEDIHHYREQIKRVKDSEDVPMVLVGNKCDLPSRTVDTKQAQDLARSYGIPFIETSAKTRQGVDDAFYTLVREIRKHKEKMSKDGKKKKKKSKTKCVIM

As for `C#Cc1c(F)ccc2cc(N)cc(-c3ncc4c(N5CCCC[C@H]6C[C@H]65)nc(OC[C@@]56CCCN5C[C@H](F)C6)nc4c3F)c12` [Example 5, 4-(4-((1R,7S)-2-azabicyclo[5.1.0]octan-2-yl)-8-fluoro-2-(((2R,7aS)-2-fluorotetrahydro-1H-pyrrolizin-7a(5H)-yl)methoxy)pyrido[4,3-d]pyrimidin-7-yl)-5-ethynyl-6-fluoronaphthalen-2-amine], the pIC50 in experiment [1] (setting [4]) was over 7.30; in experiment [2], 7.62; in experiment [3], 6.63.

Take `[2H]C([2H])(Oc1nc(N2CCCC[C@H]3C[C@H]32)c2cnc(-c3cc(N)cc4cc(F)c(F)c(C#C)c34)c(F)c2n1)[C@@]12CCCN1C[C@H](F)C2` [Example 8, 4-(4-((1R,7S)-2-azabicyclo[5.1.0]octan-2-yl)-8-fluoro-2-(((2R,7aS)-2-fluorotetrahydro-1H-pyrrolizin-7a(5H)-yl)methoxy-d2)pyrido[4,3-d]pyrimidin-7-yl)-5-ethynyl-6,7-difluoronaphthalen-2-amine]: the pIC50 was over 7.30 in experiment [1] (setting [4]), 7.56 in experiment [2] and 6.67 in experiment [3].

In the case of `[2H]C([2H])(Oc1nc(N2CCCC[C@H]3[C@@H](F)[C@H]32)c2cnc(-c3cc(N)cc4cc(F)c(F)c(C#C)c34)c(F)c2n1)[C@@]12CCCN1C[C@H](F)C2` [Example 13, 5-Ethynyl-6,7-difluoro-4-(8-fluoro-4-((1S,7R,8R)-8-fluoro-2-azabicyclo[5.1.0]octan-2-yl)-2-(((2R,7aS)-2-fluorotetrahydro-1H-pyrrolizin-7a(5H)-yl)methoxy-d2)pyrido[4,3-d]pyrimidin-7-yl)naphthalen-2-amine], the results for the pIC50 in experiment [1] (setting [4]), in experiment [2] and in experiment [3] were 6.30 to 7.30, 6.37 and 5.55, respectively.

For the compound `[2H]C([2H])(Oc1nc(N2CCCC[C@@H]3[C@H](F)[C@@H]32)c2cnc(-c3cc(N)cc4cc(F)c(F)c(C#C)c34)c(F)c2n1)[C@@]12CCCN1C[C@H](F)C2` [Example 14, 5-Ethynyl-6,7-difluoro-4-(8-fluoro-4-((1R,7S,8S)-8-fluoro-2-azabicyclo[5.1.0]octan-2-yl)-2-(((2R,7aS)-2-fluorotetrahydro-1H-pyrrolizin-7a(5H)-yl)methoxy-d2)pyrido[4,3-d]pyrimidin-7-yl)naphthalen-2-amine], the pIC50 in experiment [1] (setting [4]) was 5.00 to 6.30; in experiment [2] it was at most 5.00; in experiment [3] it was at most 5.00.

Turning to `[2H]C([2H])(Oc1nc(N2CCCC[C@@H]3[C@@H](F)[C@@H]32)c2cnc(-c3cc(N)cc4cc(F)c(F)c(C#C)c34)c(F)c2n1)[C@@]12CCCN1C[C@H](F)C2` [Example 15, 5-Ethynyl-6,7-difluoro-4-(8-fluoro-4-((1R,7S,8R)-8-fluoro-2-azabicyclo[5.1.0]octan-2-yl)-2-(((2R,7aS)-2-fluorotetrahydro-1H-pyrrolizin-7a(5H)-yl)methoxy-d2)pyrido[4,3-d]pyrimidin-7-yl)naphthalen-2-amine], the pIC50 was 5.00 to 6.30 in experiment [1] (setting [4]), at most 5.00 in experiment [2] and at most 5.00 in experiment [3].

As to `[2H]C([2H])(Oc1nc(N2CCOC[C@H]3C[C@H]32)c2cnc(-c3cc(N)cc4cc(F)c(F)c(C#C)c34)c(F)c2n1)[C@@]12CCCN1C[C@H](F)C2` [Example 62, 4-(4-((1R,7S)-5-oxa-2-azabicyclo[5.1.0]octan-2-yl)-8-fluoro-2-(((2R,7aS)-2-fluorotetrahydro-1H-pyrrolizin-7a(5H)-yl)methoxy-d2)pyrido[4,3-d]pyrimidin-7-yl)-5-ethynyl-6,7-difluoronaphthalen-2-amine], the pIC50 in experiment [1] (setting [4]) is 6.30 to 7.30; in experiment [2], 7.20; in experiment [3], 6.35.

Turning to `[2H]C([2H])(Oc1nc(N2CC=CC[C@H]3[C@H](F)[C@H]32)c2cnc(-c3cc(N)cc4cc(F)c(F)c(C#C)c34)c(F)c2n1)[C@@]12CCCN1C[C@H](F)C2` [Example 137, 5-Ethynyl-6,7-difluoro-4-(8-fluoro-4-((1S,7R,8S)-8-fluoro-2-azabicyclo[5.1.0]oct-4-en-2-yl)-2-(((2R,7aS)-2-fluorotetrahydro-1H-pyrrolizin-7a(5H)-yl)methoxy-d2)pyrido[4,3-d]pyrimidin-7-yl)naphthalen-2-amine], the pIC50 in experiment [1] (setting [5]) was over 7.30; in experiment [2], 7.56; in experiment [3], 6.81.

In the case of `[2H]C([2H])(Oc1nc(N2CC=CC[C@@H]3[C@@H](F)[C@@H]32)c2cnc(-c3cc(N)cc4cc(F)c(F)c(C#C)c34)c(F)c2n1)[C@@]12CCCN1C[C@H](F)C2` [Example 138, 5-ethynyl-6,7-difluoro-4-(8-fluoro-4-((1R,7S,8R)-8-fluoro-2-azabicyclo[5.1.0]oct-4-en-2-yl)-2-(((2R,7aS)-2-fluorotetrahydro-1H-pyrrolizin-7a(5H)-yl)methoxy-d2)pyrido[4,3-d]pyrimidin-7-yl)naphthalen-2-amine], the pIC50 was 5.00 to 6.30 in experiment [1] (setting [5]), at most 5.00 in experiment [2] and at most 5.00 in experiment [3].

Turning to `[2H]C([2H])(Oc1nc(N2CCOC[C@@H]3[C@@H](F)[C@@H]32)c2cnc(-c3cc(N)cc4ccc(F)c(C#C)c34)c(F)c2n1)[C@@]12CCCN1C[C@H](F)C2` [Example 221, 5-ethynyl-6-fluoro-4-(8-fluoro-4-((1R,7R,8R)-8-fluoro-5-oxa-2-azabicyclo[5.1.0]octan-2-yl)-2-(((2R,7aS)-2-fluorotetrahydro-1H-pyrrolizin-7a(5H)-yl)methoxy-d2)pyrido[4,3-d]pyrimidin-7-yl)naphthalen-2-amine], the pIC50 in experiment [1] (setting [5]) was 5.00 to 6.30; in experiment [2], under 5.52; in experiment [3] it was under 5.52.

Consider `[2H]C([2H])(Oc1nc(N2CCOC[C@H]3[C@H](F)[C@H]32)c2c(OC)nc(-c3cc(N)cc4ccc(F)c(C#C)c34)c(F)c2n1)[C@@]12CCCN1C[C@H](F)C2` [Example 222, 5-Ethynyl-6-fluoro-4-(8-fluoro-4-((1S,7S,8S)-8-fluoro-5-oxa-2-azabicyclo[5.1.0]octan-2-yl)-2-(((2R,7aS)-2-fluorotetrahydro-1H-pyrrolizin-7a(5H)-yl)methoxy-d2)-5-methoxypyrido[4,3-d]pyrimidin-7-yl)naphthalen-2-amine], for which the pIC50 in experiment [1] (setting [5]) is over 7.30; in experiment [2], 7.93; in experiment [3], 7.27.
